From the OligoGym collection come the findings set out here.

HELM strings list units from the 5' end as sugar, base in round brackets, then linkage (d deoxyribose, r ribose, m 2'-O-methyl, p phosphodiester). Strings are as the collection lists them; they lack the last nucleoside at the 3' end of the tested compound. [moe] = 2'-O-(2-methoxyethyl) (MOE); [sp] = phosphorothioate linkage; [m5C] = 5-methylcytosine

For the series, the target named is LRRK2. Kind of series: mouse, dose not given. To be noted: ASO.
“RNA1{[moe](G)[sp].[moe](T)p.[moe](G)[sp].[moe]([m5C])[sp].[moe](A)[sp].d(A)[sp].d(G)[sp].d(T)[sp].d([m5C])[sp].d([m5C])[sp].d(A)[sp].d(A)[sp].d(A)[sp].d(T)[sp].d(G)[sp].[moe](T)[sp].[moe](G)p.[moe](T)[sp].[moe]([m5C])}$$$$ (last 3' nucleoside missing)” registered a 3 h FOB score of 4 score 0-7.

The substance “RNA1{[moe](G)[sp].[moe](T)p.[moe](G)p.[moe](A)p.[moe](A)[sp].d(G)[sp].d([m5C])[sp].d(A)[sp].d([m5C])[sp].d(T)[sp].d(G)[sp].d(A)[sp].d(A)[sp].d(T)[sp].d([m5C])[sp].[moe]([m5C])p.[moe](A)p.[moe](T)[sp].[moe](A)}$$$$ (last 3' nucleoside missing)” yielded a 3 h FOB score of 6 score 0-7.

“RNA1{[moe](G)[sp].[moe](T)p.[moe](G)p.[moe]([m5C])p.[moe](A)[sp].d(A)[sp].d(G)[sp].d(T)[sp].d([m5C])[sp].d([m5C])[sp].d(A)[sp].d(A)[sp].d(A)[sp].d(T)[sp].d(G)[sp].[moe](T)p.[moe](G)p.[moe](T)[sp].[moe]([m5C])}$$$$ (last 3' nucleoside missing)” registered a 3 h FOB score of 2 score 0-7.

Substance “RNA1{[moe](G)[sp].[moe](T)p.[moe](T)[sp].[moe](A)[sp].[moe](A)[sp].d([m5C])[sp].d(G)[sp].d([m5C])[sp].d(A)[sp].d([m5C])[sp].d(T)[sp].d(T)[sp].d(A)[sp].d(A)[sp].d([m5C])[sp].[moe](A)[sp].[moe](A)p.[moe](T)[sp].[moe](A)}$$$$ (last 3' nucleoside missing)” displayed a 3 h FOB score of 2 score 0-7.

“RNA1{[moe](G)[sp].[moe](T)p.[moe](T)[sp].[moe](T)[sp].[moe]([m5C])[sp].d(A)[sp].d(T)[sp].d(T)[sp].d([m5C])[sp].d(G)[sp].d(G)[sp].d(T)[sp].d(T)[sp].d(A)[sp].d(T)[sp].[moe](A)[sp].[moe](A)p.[moe](G)[sp].[moe](G)}$$$$ (last 3' nucleoside missing)” registered a 3 h FOB score of 7 score 0-7.

For “RNA1{[moe](G)[sp].[moe](T)p.[moe](T)p.[moe](T)p.[moe]([m5C])[sp].d(A)[sp].d(T)[sp].d(T)[sp].d([m5C])[sp].d(G)[sp].d(G)[sp].d(T)[sp].d(T)[sp].d(A)[sp].d(T)[sp].[moe](A)p.[moe](A)p.[moe](G)[sp].[moe](G)}$$$$ (last 3' nucleoside missing)”, the 3 h FOB score is 7 score 0-7.

Take “RNA1{[moe](G)[sp].[moe](T)p.[moe]([m5C])p.[moe](A)p.[moe](A)[sp].d(A)[sp].d([m5C])[sp].d(T)[sp].d([m5C])[sp].d(T)[sp].d(T)[sp].d([m5C])[sp].d(A)[sp].d(G)[sp].d(A)[sp].[moe](G)p.[moe](T)p.[moe](T)[sp].[moe](T)}$$$$ (last 3' nucleoside missing)”: the 3 h FOB score worked out at 0 score 0-7.

Take “RNA1{[moe](G)[sp].[moe](T)p.[moe]([m5C])p.[moe](A)p.[moe]([m5C])[sp].d([m5C])[sp].d(T)[sp].d(T)[sp].d(T)[sp].d([m5C])[sp].d([m5C])[sp].d([m5C])[sp].d(A)[sp].d(A)[sp].d(T)[sp].[moe](G)p.[moe]([m5C])p.[moe](T)[sp].[moe](T)}$$$$ (last 3' nucleoside missing)”: the 3 h FOB score stood at 0 score 0-7.

The substance “RNA1{[moe](G)[sp].[moe]([m5C])p.[moe](A)[sp].[moe](A)[sp].[moe](G)[sp].d(T)[sp].d([m5C])[sp].d([m5C])[sp].d(A)[sp].d(A)[sp].d(A)[sp].d(T)[sp].d(G)[sp].d(T)[sp].d(G)[sp].[moe](T)[sp].[moe]([m5C])p.[moe](A)[sp].[moe](A)}$$$$ (last 3' nucleoside missing)” had a 3 h FOB score of 6 score 0-7.

In turn, “RNA1{[moe](G)[sp].[moe]([m5C])p.[moe](A)p.[moe]([m5C])p.[moe](A)[sp].d([m5C])[sp].d(A)[sp].d(G)[sp].d(T)[sp].d(G)[sp].d(T)[sp].d(A)[sp].d(G)[sp].d(T)[sp].d([m5C])[sp].[moe](A)p.[moe](T)p.[moe](A)[sp].[moe]([m5C])}$$$$ (last 3' nucleoside missing)” registered a 3 h FOB score of 2 score 0-7.

The substance “RNA1{[moe](G)[sp].[moe]([m5C])p.[moe](T)p.[moe](G)p.[moe](T)[sp].d(A)[sp].d(A)[sp].d(T)[sp].d(A)[sp].d([m5C])[sp].d(G)[sp].d(G)[sp].d([m5C])[sp].d(A)[sp].d(T)[sp].[moe]([m5C])p.[moe](T)p.[moe]([m5C])[sp].[moe](G)}$$$$ (last 3' nucleoside missing)” displayed a 3 h FOB score of 6 score 0-7.

For the substance “RNA1{[moe](G)[sp].[moe]([m5C])p.[moe](T)p.[moe](G)p.[moe]([m5C])[sp].d(T)[sp].d([m5C])[sp].d(A)[sp].d(T)[sp].d(A)[sp].d(T)[sp].d([m5C])[sp].d(T)[sp].d(A)[sp].d(A)[sp].[moe](A)p.[moe](G)p.[moe](A)[sp].[moe]([m5C])}$$$$ (last 3' nucleoside missing)”, the 3 h FOB score was determined as 0 score 0-7.

Substance “RNA1{[moe](G)[sp].[moe]([m5C])p.[moe](T)p.[moe](T)p.[moe](T)[sp].d([m5C])[sp].d(A)[sp].d(T)[sp].d(A)[sp].d(G)[sp].d([m5C])[sp].d(T)[sp].d(T)[sp].d([m5C])[sp].d([m5C])[sp].[moe](A)p.[moe]([m5C])p.[moe]([m5C])[sp].[moe](A)}$$$$ (last 3' nucleoside missing)” gave a 3 h FOB score of 0 score 0-7.

In the case of “RNA1{[moe](G)[sp].[moe]([m5C])p.[moe]([m5C])[sp].[moe](A)[sp].[moe]([m5C])[sp].d(T)[sp].d(T)[sp].d(T)[sp].d([m5C])[sp].d(A)[sp].d(G)[sp].d([m5C])[sp].d([m5C])[sp].d(A)[sp].d([m5C])[sp].[moe](T)[sp].[moe](T)p.[moe]([m5C])[sp].[moe](A)}$$$$ (last 3' nucleoside missing)”, the 3 h FOB score was found to be 7 score 0-7.

In the case of “RNA1{[moe](G)[sp].[moe]([m5C])p.[moe]([m5C])[sp].[moe](A)[sp].[moe]([m5C])[sp].d(T)[sp].d([m5C])[sp].d(A)[sp].d(T)[sp].d(G)[sp].d(A)[sp].d(G)[sp].d(G)[sp].d(A)[sp].d([m5C])[sp].[moe](T)[sp].[moe](T)p.[moe]([m5C])[sp].[moe]([m5C])}$$$$ (last 3' nucleoside missing)”, the 3 h FOB score is 6 score 0-7.

Substance “RNA1{[moe](G)[sp].[moe]([m5C])p.[moe]([m5C])p.[moe]([m5C])p.[moe](A)[sp].d(G)[sp].d([m5C])[sp].d([m5C])[sp].d(A)[sp].d(A)[sp].d(A)[sp].d(T)[sp].d(G)[sp].d([m5C])[sp].d(T)[sp].[moe](T)p.[moe](G)p.[moe]([m5C])[sp].[moe](A)}$$$$ (last 3' nucleoside missing)” showed a 3 h FOB score of 0 score 0-7.

Consider “RNA1{[moe](G)[sp].[moe]([m5C])p.[moe]([m5C])p.[moe]([m5C])p.[moe](A)[sp].d(T)[sp].d(T)[sp].d(T)[sp].d([m5C])[sp].d(T)[sp].d(T)[sp].d([m5C])[sp].d(A)[sp].d(A)[sp].d([m5C])[sp].[moe](A)p.[moe](G)p.[moe](A)[sp].[moe](G)}$$$$ (last 3' nucleoside missing)”, for which the 3 h FOB score came out at 0 score 0-7.

Regarding “RNA1{[moe](T)[sp].[moe](A)p.[moe](A)[sp].[moe]([m5C])[sp].[moe](G)[sp].d([m5C])[sp].d(A)[sp].d([m5C])[sp].d(T)[sp].d(T)[sp].d(A)[sp].d(A)[sp].d([m5C])[sp].d(A)[sp].d(A)[sp].[moe](T)[sp].[moe](A)p.[moe](T)[sp].[moe]([m5C])}$$$$ (last 3' nucleoside missing)”, the 3 h FOB score was determined as 2 score 0-7.

Substance “RNA1{[moe](T)[sp].[moe](G)p.[moe](A)[sp].[moe](G)[sp].[moe](T)[sp].d(G)[sp].d([m5C])[sp].d(A)[sp].d(T)[sp].d(G)[sp].d(G)[sp].d([m5C])[sp].d(A)[sp].d(T)[sp].d([m5C])[sp].[moe](A)[sp].[moe](A)p.[moe](A)[sp].[moe](A)}$$$$ (last 3' nucleoside missing)” gave a 3 h FOB score of 5 score 0-7.

For “RNA1{[moe](T)[sp].[moe](G)p.[moe](T)[sp].[moe]([m5C])[sp].[moe](A)[sp].d([m5C])[sp].d([m5C])[sp].d(T)[sp].d(T)[sp].d(T)[sp].d([m5C])[sp].d([m5C])[sp].d([m5C])[sp].d(A)[sp].d(A)[sp].[moe](T)[sp].[moe](G)p.[moe]([m5C])[sp].[moe](T)}$$$$ (last 3' nucleoside missing)”, the 3 h FOB score turned out to be 5 score 0-7.

The substance “RNA1{[moe](T)[sp].[moe](G)p.[moe]([m5C])[sp].[moe](T)[sp].[moe](G)[sp].d([m5C])[sp].d(T)[sp].d([m5C])[sp].d(A)[sp].d(T)[sp].d(A)[sp].d(T)[sp].d([m5C])[sp].d(T)[sp].d(A)[sp].[moe](A)[sp].[moe](A)p.[moe](G)[sp].[moe](A)}$$$$ (last 3' nucleoside missing)” returned a 3 h FOB score of 0 score 0-7.

“RNA1{[moe](T)[sp].[moe](G)p.[moe]([m5C])[sp].[moe](T)[sp].[moe](T)[sp].d(T)[sp].d([m5C])[sp].d(A)[sp].d(T)[sp].d(A)[sp].d(G)[sp].d([m5C])[sp].d(T)[sp].d(T)[sp].d([m5C])[sp].[moe]([m5C])[sp].[moe](A)p.[moe]([m5C])[sp].[moe]([m5C])}$$$$ (last 3' nucleoside missing)” registered a 3 h FOB score of 4 score 0-7.

Take “RNA1{[moe](T)[sp].[moe](G)p.[moe]([m5C])p.[moe](T)p.[moe](G)[sp].d([m5C])[sp].d(T)[sp].d([m5C])[sp].d(A)[sp].d(T)[sp].d(A)[sp].d(T)[sp].d([m5C])[sp].d(T)[sp].d(A)[sp].[moe](A)p.[moe](A)p.[moe](G)[sp].[moe](A)}$$$$ (last 3' nucleoside missing)”: the 3 h FOB score amounted to 0 score 0-7.

“RNA1{[moe](T)[sp].[moe](G)p.[moe]([m5C])p.[moe](T)p.[moe](T)[sp].d(T)[sp].d([m5C])[sp].d(A)[sp].d(T)[sp].d(A)[sp].d(G)[sp].d([m5C])[sp].d(T)[sp].d(T)[sp].d([m5C])[sp].[moe]([m5C])p.[moe](A)p.[moe]([m5C])[sp].[moe]([m5C])}$$$$ (last 3' nucleoside missing)” yielded a 3 h FOB score of 0 score 0-7.
